Measurements published in BigSolDB 2.1.

Question: Which results are given for `CC(=O)c1ccc2cc(C)ccc2c1`?
Answer: solubility (mole fraction) (in n-dodecane, 273.15 K): 0.00876; solubility (mole fraction) (in n-dodecane, 279.65 K): 0.0122; solubility (mole fraction) (in n-dodecane, 283.15 K): 0.0146; solubility (mole fraction) (in n-dodecane, 288.15 K): 0.0188; solubility (mole fraction) (in n-dodecane, 291.15 K): 0.022; solubility (mole fraction) (in n-dodecane, 293.65 K): 0.0254; solubility (mole fraction) (in n-dodecane, 296.65 K): 0.0291; solubility (mole fraction) (in n-dodecane, 299.15 K): 0.0339; solubility (mole fraction) (in n-dodecane, 301.65 K): 0.037; solubility (mole fraction) (in n-dodecane, 305.15 K): 0.046; solubility (mole fraction) (in n-dodecane, 308.15 K): 0.0535; solubility (mole fraction) (in n-dodecane, 311.15 K): 0.0683; solubility (mole fraction) (in n-heptane, 273.15 K): 0.00938; solubility (mole fraction) (in n-heptane, 277.15 K): 0.0104; solubility (mole fraction) (in n-heptane, 279.15 K): 0.0114; solubility (mole fraction) (in n-heptane, 282.15 K): 0.013; solubility (mole fraction) (in n-heptane, 285.15 K): 0.0151; solubility (mole fraction) (in n-heptane, 288.15 K): 0.0177; solubility (mole fraction) (in n-heptane, 291.15 K): 0.0217; solubility (mole fraction) (in n-heptane, 294.15 K): 0.0258; solubility (mole fraction) (in n-heptane, 297.15 K): 0.0293; solubility (mole fraction) (in n-heptane, 299.65 K): 0.0345; solubility (mole fraction) (in n-heptane, 303.15 K): 0.0428; solubility (mole fraction) (in n-heptane, 306.15 K): 0.0484; solubility (mole fraction) (in n-heptane, 309.15 K): 0.0566; solubility (mole fraction) (in n-heptane, 311.15 K): 0.0629; solubility (mole fraction) (in n-heptane, 313.15 K): 0.0716; solubility (mole fraction) (in n-heptane, 316.15 K): 0.0852; solubility (mole fraction) (in n-heptane, 319.15 K): 0.105; solubility (mole fraction) (in n-octane, 273.15 K): 0.00895; solubility (mole fraction) (in n-octane, 277.65 K): 0.0105; solubility (mole fraction) (in n-octane, 283.15 K): 0.0139; solubility (mole fraction) (in n-octane, 287.15 K): 0.0172; solubility (mole fraction) (in n-octane, 291.15 K): 0.0211; solubility (mole fraction) (in n-octane, 293.15 K): 0.0239; solubility (mole fraction) (in n-octane, 297.15 K): 0.029; solubility (mole fraction) (in n-octane, 301.15 K): 0.0371; solubility (mole fraction) (in n-octane, 303.15 K): 0.0417; solubility (mole fraction) (in n-octane, 306.65 K): 0.0487; solubility (mole fraction) (in n-octane, 311.15 K): 0.0623; solubility (mole fraction) (in n-octane, 314.15 K): 0.0755; solubility (mole fraction) (in n-octane, 316.15 K): 0.0861; solubility (mole fraction) (in n-octane, 319.15 K): 0.106

Question: Which solubility (mole fraction) (in n-dodecane, 273.15 K) does the source give for `CC(=O)c1ccc2ccc(C)cc2c1` here?
Answer: 0.00013

Question: And the solubility (mole fraction) (in n-dodecane, 275.15 K)?
Answer: 0.000135

Question: And the solubility (mole fraction) (in n-dodecane, 278.15 K)?
Answer: 0.000158

Question: What about the solubility (mole fraction) (in n-dodecane, 281.15 K) of the same compound?
Answer: 0.000195

Question: What about the solubility (mole fraction) (in n-dodecane, 283.15 K) of the same compound?
Answer: 0.000205

Question: What about the solubility (mole fraction) (in n-dodecane, 286.15 K) of the same compound?
Answer: 0.000239

Question: And the solubility (mole fraction) (in n-dodecane, 289.15 K)?
Answer: 0.000287

Question: What about the solubility (mole fraction) (in n-dodecane, 292.15 K) of the same compound?
Answer: 0.000339

Question: And the solubility (mole fraction) (in n-dodecane, 295.15 K)?
Answer: 0.00041

Question: What about the solubility (mole fraction) (in n-dodecane, 297.15 K) of the same compound?
Answer: 0.000454

Question: What about the solubility (mole fraction) (in n-dodecane, 300.15 K) of the same compound?
Answer: 0.000526

Question: And the solubility (mole fraction) (in n-heptane, 273.15 K)?
Answer: 0.000115

Question: And the solubility (mole fraction) (in n-heptane, 275.15 K)?
Answer: 0.000124

Question: What about the solubility (mole fraction) (in n-heptane, 277.15 K) of the same compound?
Answer: 0.000138

Question: And the solubility (mole fraction) (in n-heptane, 279.15 K)?
Answer: 0.000157

Question: What about the solubility (mole fraction) (in n-heptane, 282.15 K) of the same compound?
Answer: 0.000182

Question: What about the solubility (mole fraction) (in n-heptane, 286.15 K) of the same compound?
Answer: 0.000228

Question: And the solubility (mole fraction) (in n-heptane, 289.15 K)?
Answer: 0.000268

Question: What about the solubility (mole fraction) (in n-heptane, 291.15 K) of the same compound?
Answer: 0.000297

Question: And the solubility (mole fraction) (in n-heptane, 293.15 K)?
Answer: 0.000344

Question: And the solubility (mole fraction) (in n-octane, 273.15 K)?
Answer: 0.000114

Question: What about the solubility (mole fraction) (in n-octane, 276.15 K) of the same compound?
Answer: 0.00013

Question: What about the solubility (mole fraction) (in n-octane, 279.15 K) of the same compound?
Answer: 0.000152

Question: And the solubility (mole fraction) (in n-octane, 281.15 K)?
Answer: 0.000172

Question: And the solubility (mole fraction) (in n-octane, 284.15 K)?
Answer: 0.000194

Question: And the solubility (mole fraction) (in n-octane, 287.15 K)?
Answer: 0.000231

Question: What about the solubility (mole fraction) (in n-octane, 289.15 K) of the same compound?
Answer: 0.000254

Question: What about the solubility (mole fraction) (in n-octane, 292.15 K) of the same compound?
Answer: 0.000291

Question: What about the solubility (mole fraction) (in n-octane, 295.15 K) of the same compound?
Answer: 0.000343

Question: And the solubility (mole fraction) (in n-octane, 297.15 K)?
Answer: 0.000387
